This note sets out measurements from ChEMBL document CHEMBL1131757, “4,10-dihydro-5H-thieno[3,2-c][1]benzazepine derivatives and 9,10-dihydro-4H-thieno[2,3-c][1]benzazepine derivatives as orally active arginine vasopressin receptor antagonists” (Bioorg Med Chem Lett, 1999).

For one data set, the system named is Rattus norvegicus. As to the kind of experiment: Amount of urine output was measured in rat at a dose of 10 mg/kg administered orally. In kind it is ADME, organism-based. Also on record: dose 10 mg/kg, route oral. Conditions: in vivo, po.
For data set [1], the target named is T1, Vasopressin V1a receptor (Homo sapiens, UniProt P37288). As to the kind of experiment: In vitro inhibition of [3H]- AVP binding to V1a receptor from human platelet membrane at 10 uM.
Target sequence in this assay (P37288 whole entry, looked up): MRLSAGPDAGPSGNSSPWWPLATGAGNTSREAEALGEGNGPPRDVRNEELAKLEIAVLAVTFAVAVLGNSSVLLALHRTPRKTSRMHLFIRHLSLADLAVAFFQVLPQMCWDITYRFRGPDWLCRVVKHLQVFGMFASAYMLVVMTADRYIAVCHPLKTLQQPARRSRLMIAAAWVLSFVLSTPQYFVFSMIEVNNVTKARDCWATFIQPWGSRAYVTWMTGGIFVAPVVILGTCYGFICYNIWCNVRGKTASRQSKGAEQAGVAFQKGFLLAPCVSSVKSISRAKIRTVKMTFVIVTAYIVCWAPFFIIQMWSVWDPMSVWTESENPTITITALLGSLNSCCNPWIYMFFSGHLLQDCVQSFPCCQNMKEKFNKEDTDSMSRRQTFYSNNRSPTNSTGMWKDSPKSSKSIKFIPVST
The next data set has as its target Vasopressin V2 receptor (Homo sapiens, UniProt P30518). Description: In vitro inhibition of [3H]AVP binding to human V2 receptor from murine fibroblast cell line (LV2). The data set is classed as cell-based.
The target in data set [2] is T1, Vasopressin V1a receptor. Description: In vitro inhibition of [3H]- AVP binding to V1a receptor from human platelet membrane.
Target sequence in this assay (P37288 whole entry): as the sequence (P37288 whole entry, looked up) above

Chain of Vasopressin V2 receptor (P30518 whole entry): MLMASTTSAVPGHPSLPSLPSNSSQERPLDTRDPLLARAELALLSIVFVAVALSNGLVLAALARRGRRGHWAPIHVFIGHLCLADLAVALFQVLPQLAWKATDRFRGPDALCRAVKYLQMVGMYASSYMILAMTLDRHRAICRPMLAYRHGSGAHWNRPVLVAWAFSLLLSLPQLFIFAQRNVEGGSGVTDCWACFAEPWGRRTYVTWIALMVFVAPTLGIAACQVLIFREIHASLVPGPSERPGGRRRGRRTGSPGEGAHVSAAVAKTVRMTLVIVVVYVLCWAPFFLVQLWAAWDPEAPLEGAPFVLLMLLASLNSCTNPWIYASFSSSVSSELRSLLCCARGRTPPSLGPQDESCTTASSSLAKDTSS

As for `Cc1ccc(F)cc1C(=O)Nc1ccc(C(=O)N2Cc3sccc3Cc3ccccc32)cn1`, the Urine volume in the data set on Rattus norvegicus is 16.5 ml 4hr-1.

Broadly, the inhibition is the change of the read-out against control, counted positive when it falls. A higher inhibition goes with strong suppression. One may read the IC50 as the concentration at which inhibition is half-maximal. Higher therefore signals weaker potency. Molecule `Cc1ccc(F)cc1C(=O)Nc1ccc(C(=O)N2Cc3sccc3Cc3ccccc32)c(Cl)c1` yielded a Urine volume in the data set on Rattus norvegicus of 30 ml 4hr-1. Further, the inhibition on Vasopressin V1a receptor [1] worked out at 59%. On Vasopressin V2 receptor, this molecule had an IC50 of 6.8 nM.

On to `Cc1ccc(F)cc1C(=O)Nc1ccc(C(=O)N2Cc3cccn3Cc3ccccc32)c(Cl)c1` [LIXIVAPTAN], for which the Urine volume in the data set on Rattus norvegicus amounted to 35 ml 4hr-1.

Molecule `Cc1ccccc1C(=O)Nc1ccc(C(=O)N2Cc3sccc3Cc3ccccc32)cc1` returned a Urine volume in the data set on Rattus norvegicus of 13.5 ml 4hr-1. The IC50 on Vasopressin V1a receptor [2] was 8.5 nM; on Vasopressin V2 receptor it was 0.7 nM.

`O=C(Nc1ccc(C(=O)N2Cc3sccc3Cc3ccccc32)cc1)c1ccc(Cl)cc1Cl` yielded a Urine volume with Rattus norvegicus of 5.8 ml 4hr-1. The values for the IC50 on Vasopressin V1a receptor [2] and at Vasopressin V2 receptor were 43 nM and 19 nM, respectively.

On to `Cc1ccccc1C(=O)Nc1ccc(C(=O)N2Cc3ccsc3Cc3ccccc32)cc1`, for which the Urine volume in the data set with Rattus norvegicus was 4.5 ml 4hr-1.
